According to PubChem BioAssay AID1845198 (Molecular Pharmacology Branch, DTP, NCI, 2023):

Tested on: 425362-245-T-J1 tumor spheroids, viability % test/control
Assay: Anticancer human tumor 425362-245-T-J1 patient-derived melanoma cell line growth inhibition
Settings: spheroids with HUVEC and MSC; for IC50: curve of first compound; for viability, T/C: stronger effect = lower value
Excerpt: Multicellular complex tumor spheroid response to DNA repair inhibitors in combination with DNA-damaging drugs
This study explores the anticancer activities of DNA-damaging drugs and inhibitors of DNA damage repair, both as single agents and in combinations. Complex tumor spheroids comprised of malignant cells, endothelial cells and mesenchymal stem cells served as an in vitro model for human solid tumors. This model system incorporates physiologically relevant features and patient-derived or established malignant cell lines with clinically relevant genetic alterations from many tumor types. Twenty-six patient-derived or established malignant cell lines were evaluated representing sarcoma, melanoma, small cell lung cancer (SCLC), non-small cell lung cancer (NSCLC), as well as bladder, ovarian and pancreatic cancers. The concentration ranges selected for each drug and investigational agent were based upon clinically achievable concentrations if the clinical Cmax of the agent was known.
Compounds. The drugs and compounds olaparib (NSC753686), talazoparib (NSC767125), berzosertib (NSC777718), elimusertib (NSC800525), nedisertib (NSC802822), VX-984 (NSC792969), AZD-1390 (NSC803789), temozolomide (NSC362856), topotecan (NSC609699), trabectedin (NSC813783), staurosporine (NSC755774), and gemcitabine (NSC613327) were obtained from the National Cancer Institute (NCI) Developmental Therapeutics Program Chemical Repository. The FDA-approved anticancer drug set is available from the Developmental Therapeutics Program at https://dtp.cancer.gov/organization/dscb/obtaining/available_plates.htm. […] The stock solutions were prepared in dimethyl sulfoxide (DMSO, Sigma-Aldrich, St. Louis, MO, cat. D2650) at 400-fold the tested concentration and stored at -70 degrees C. Prior to their use, the stock solutions were diluted in fresh medium and the final DMSO concentration in the assay was 0.25% (v/v). All drugs and investigational agents were tested over a range starting from a high concentration at or near the clinical Cmax and decreasing in half-log increments. If the clinical Cmax for an agent had not been determined, the highest concentration tested was 10 microM.
Cell Lines. The patient-derived cancer cell (PDC) lines: 156681-154-R-J1-PDC, 283228-195-R-J1-PDC, 287954-098-R-J1-PDC, 292921-168-R-J2-PDC, 349418-098-R-PDC, 425362-245-T-J1-PDC, 556581-035-R-J1-PDC, and BL0293-F563-PDC were received from the NCI Patient-Derived Models Repository (PDMR, https://pdmr.cancer.gov). The established cell lines HS-SY-2 (RRID:CVCL_8719), MPNST, and SYO-1 (RRID:CVCL_7146) were obtained from the Sloan Kettering Institute. The alveolar soft parts sarcoma cell line ASPS-1 (RRID:CVCL_S738) was established at the NCI and grown from internal seed stocks. The following established cell lines were purchased from the American Type Culture Collection (ATCC, Manassas, VA): G-401 (ATCC, cat. CRL-1441, RRID:CVCL_0270), SW982 (ATCC, cat. HTB-93, RRID:CVCL_1734), VA-ES-BJ (ATCC, cat. CRL-2138, RRID:CVCL_1785), NCI-H719 (ATCC, cat. CRL-5837, RRID:CVCL_1582), NCI-H196 (ATCC, cat. CRL-5823, RRID:CVCL_1509), NCI-H841 (ATCC, cat. CRL-5845, RRID:CVCL_1595), NCI-H1618 (ATCC, cat. CRL-5879, RRID:CVCL_1480), NCI-H1876 (ATCC, cat. CRL-5902, RRID:CVCL_1503), DMS 114 (ATCC, cat. CRL-2066; RRID:CVCL_1174), NCI-H211 (ATCC, cat. CRL-5824; RRID:CVCL_1529), and SW 1271 (ATCC, cat. CRL-2177, RRID:CVCL_1716). The small cell lung cancer cell line COR-L88 was purchased from Sigma-Aldrich (cat. 92031917-1VL, RRID:CVCL_1141). The non-small cell lung cancer cell lines NCI-H226 (RRID:CVCL_1544) and NCI-H322M (RRID:CVCL_1557) were established at the NCI and grown from internal seed stocks. Pooled donor human umbilical vein endothelial cells (HUVEC, Lonza, cat. CC-2519) and human mesenchymal stem cells (hMSC, Lonza, cat. PT-2501) were purchased from Lonza (Walkersville, MD).
Cell Culture. All cells were maintained in an incubator at 37 degrees C and 5% CO2 with 95% humidity. […]

[1] = second compound 0.003 µM, first compound 0.00949 µM
[2] = second compound 0.003 µM, first compound 0.03 µM
[3] = second compound 0.003 µM, first compound 0.0949 µM
[4] = second compound 0.003 µM, first compound 0.3 µM
[5] = second compound 0.003 µM, first compound 0.949 µM
[6] = second compound 0.003 µM, first compound 3 µM
[7] = second compound 0.00949 µM, first compound 0.00949 µM
[8] = second compound 0.00949 µM, first compound 0.03 µM
[9] = second compound 0.00949 µM, first compound 0.0949 µM
[10] = second compound 0.00949 µM, first compound 0.3 µM
[11] = second compound 0.00949 µM, first compound 0.949 µM
[12] = second compound 0.00949 µM, first compound 3 µM
[13] = second compound 0.03 µM, first compound 0.00949 µM
[14] = second compound 0.03 µM, first compound 0.03 µM
[15] = second compound 0.03 µM, first compound 0.0949 µM
[16] = second compound 0.03 µM, first compound 0.3 µM
[17] = second compound 0.03 µM, first compound 0.949 µM
[18] = second compound 0.03 µM, first compound 3 µM
[19] = second compound 0.0949 µM, first compound 0.00949 µM
[20] = second compound 0.0949 µM, first compound 0.03 µM
[21] = second compound 0.0949 µM, first compound 0.0949 µM
[22] = second compound 0.0949 µM, first compound 0.3 µM
[23] = second compound 0.0949 µM, first compound 0.949 µM
[24] = second compound 0.0949 µM, first compound 3 µM
[25] = second compound 0.3 µM, first compound 0.00949 µM
[26] = second compound 0.3 µM, first compound 0.03 µM
[27] = second compound 0.3 µM, first compound 0.0949 µM
[28] = second compound 0.3 µM, first compound 0.3 µM
[29] = second compound 0.3 µM, first compound 0.949 µM
[30] = second compound 0.3 µM, first compound 3 µM
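Further: spheroids exposed to agents for 7 days.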
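Wherever viability, T/C is given: 100% = DMSO vehicle control viability.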

Compound | IC50 (second compound 0.003 µM) | IC50 (second compound 0.00949 µM) | IC50 (second compound 0.03 µM) | IC50 (second compound 0.0949 µM) | IC50 (second compound 0.3 µM) | viability, T/C [3] | viability, T/C [4] | viability, T/C [5] | viability, T/C [6] | viability, T/C [9] | viability, T/C [10] | viability, T/C [11] | viability, T/C [12] | viability, T/C [15] | viability, T/C [16] | viability, T/C [17] | viability, T/C [18] | viability, T/C [21] | viability, T/C [22] | viability, T/C [23] | also measured
CNCc1ccc(-c2cc(-c3nc(-c4ccc(S(=O)(=O)C(C)C)cc4)cnc3N)on2)cc1 + CC[C@@]1(O)C(=O)OCc2c1cc1n(c2=O)Cc2cc3c(CN(C)C)c(O)ccc3nc2-1 | 55 nM | 47.5 nM | < 9.49 nM | < 9.49 nM | < 9.49 nM | 32.7% | 5.49% | 2.14% | 0.22% | 17.6% | 4.43% | 2.33% | 0.18% | 10.4% | 2.7% | 1.35% | 0.15% | 2.64% | 2.59% | 1.05% | viability, T/C [1]: 75.8%; viability, T/C [2]: 69.4%; viability, T/C [7]: 70%; viability, T/C [8]: 73%; viability, T/C [13]: 33.9%; viability, T/C [14]: 17.8%; viability, T/C [19]: 4.36%; viability, T/C [20]: 4.83%; viability, T/C [24]: 0.21%; viability, T/C [25]: 1.97%; viability, T/C [26]: 1.87%; viability, T/C [27]: 1.95%; viability, T/C [28]: 1.64%; viability, T/C [29]: 1.08%; viability, T/C [30]: 0.28%
Cn1ncnc1[C@H]1c2n[nH]c(=O)c3cc(F)cc(c23)N[C@@H]1c1ccc(F)cc1 + CC[C@@]1(O)C(=O)OCc2c1cc1n(c2=O)Cc2cc3c(CN(C)C)c(O)ccc3nc2-1 | < 9.49 nM | < 9.49 nM | < 9.49 nM | < 9.49 nM | < 9.49 nM | 17.6% | 11.1% | 5.98% | 2.38% | 9.54% | 9.4% | 6.02% | 3.27% | 7.89% | 6.48% | 3.96% | 2.32% | 3.86% | 3.16% | 2.57% | viability, T/C [1]: 47.8%; viability, T/C [2]: 30.3%; viability, T/C [7]: 28.2%; viability, T/C [8]: 13.9%; viability, T/C [13]: 8.39%; viability, T/C [14]: 8.16%; viability, T/C [19]: 4.28%; viability, T/C [20]: 3.95%; viability, T/C [24]: 1.79%; viability, T/C [25]: 2.13%; viability, T/C [26]: 1.9%; viability, T/C [27]: 1.79%; viability, T/C [28]: 1.71%; viability, T/C [29]: 1.43%; viability, T/C [30]: 1.33%
O=C(c1cc(Cc2n[nH]c(=O)c3ccccc23)ccc1F)N1CCN(C(=O)C2CC2)CC1 + CC[C@@]1(O)C(=O)OCc2c1cc1n(c2=O)Cc2cc3c(CN(C)C)c(O)ccc3nc2-1 | 3170 nM | 650 nM | < 94.9 nM | < 94.9 nM | < 94.9 nM | 87% | 84.8% | 80.6% | 52.4% | 71.3% | 55% | 46.6% | 34.8% | 7.79% | 10.1% | 8.82% | 6.98% | 4.29% | 4.4% | 5.46% | viability, T/C (second compound 0.003 µM, first compound 9.49 µM): 7.82%; viability, T/C (second compound 0.003 µM, first compound 30 µM): 9.12%; viability, T/C (second compound 0.00949 µM, first compound 9.49 µM): 9.52%; viability, T/C (second compound 0.00949 µM, first compound 30 µM): 8.51%; viability, T/C (second compound 0.03 µM, first compound 9.49 µM): 6.48%; viability, T/C (second compound 0.03 µM, first compound 30 µM): 5.12%; viability, T/C [24]: 4.39%; viability, T/C (second compound 0.0949 µM, first compound 9.49 µM): 3.36%; viability, T/C (second compound 0.0949 µM, first compound 30 µM): 3.93%; viability, T/C [27]: 2.55%; viability, T/C [28]: 1.67%; viability, T/C [29]: 1.76%; viability, T/C [30]: 1.64%; viability, T/C (second compound 0.3 µM, first compound 9.49 µM): 1.57%; viability, T/C (second compound 0.3 µM, first compound 30 µM): 1.68%
